Results published in ChEMBL document CHEMBL3885881, “DrugMatrix”.

Species: Rattus norvegicus
Assay: DrugMatrix - Regimen: Daily Repeat
Assay type: toxicity, organism-based, Sprague-Dawley
Design: regimen Daily Repeat, gender Male, age 6-8 weeks
Details: in vivo, po, route oral GAVAGE, vehicle .5 % CMC; for ABSOLUTE BASOPHIL / ABSOLUTE EOSINOPHIL / ABSOLUTE LYMPHOCYTE / ABSOLUTE MONOCYTE / ABSOLUTE SEGMENTED NEUTROPHIL / BASOPHIL / EOSINOPHIL / ERYTHROCYTE COUNT / HEMATOCRIT / HEMOGLOBIN / LEUKOCYTE COUNT / LYMPHOCYTE / MEAN CORPUSCULAR HEMOGLOBIN / MEAN CORPUSCULAR HEMOGLOBIN CONCENTRATION / MEAN CORPUSCULAR VOLUME / MONOCYTE / NEUTROPHIL / NUCLEATED RED BLOOD CELLS / PLATELET COUNT: tissue Blood; for ALANINE AMINOTRANSFERASE / ALBUMIN / ALKALINE PHOSPHATASE / ASPARTATE AMINOTRANSFERASE / BLOOD UREA NITROGEN / CARBON DIOXIDE / CHLORIDE / CHOLESTEROL / CREATINE PHOSPHOKINASE / CREATININE / GLUCOSE / LACTATE DEHYDROGENASE / LIPASE / PHOSPHORUS / POTASSIUM / SODIUM / TOTAL BILIRUBIN / TOTAL PROTEIN / URIC ACID: tissue Plasma
[1] = 0.3 mg/kg, 72 h, dose level Low, time 3 day
[2] = 0.3 mg/kg, 120 h, dose level Low, time 5 day
[3] = 5 mg/kg, 72 h, dose level High, time 3 day
[4] = 5 mg/kg, 120 h, dose level High, time 5 day

Compound: Nc1c(CC(=O)O)cccc1C(=O)c1ccc(Br)cc1 [BROMFENAC]
- ABSOLUTE BASOPHIL [1]: 0 CELLS/uL
- ABSOLUTE EOSINOPHIL [1]: 0 CELLS/uL
- ABSOLUTE LYMPHOCYTE [1]: 8435.67 CELLS/uL
- ABSOLUTE MONOCYTE [1]: 96.67 CELLS/uL
- ABSOLUTE SEGMENTED NEUTROPHIL [1]: 1134.33 CELLS/uL
- BASOPHIL [1]: 0%
- EOSINOPHIL [1]: 0%
- ERYTHROCYTE COUNT [1]: 5.55 x10E6/uL
- HEMATOCRIT [1]: 35.1%
- HEMOGLOBIN [1]: 13.07 G/DL
- LEUKOCYTE COUNT [1]: 9.67 x10E3/uL
- LYMPHOCYTE [1]: 88%
- MEAN CORPUSCULAR HEMOGLOBIN [1]: 23.57 pg
- MEAN CORPUSCULAR HEMOGLOBIN CONCENTRATION [1]: 37.2 G/DL
- MEAN CORPUSCULAR VOLUME [1]: 63.33 fL
- MONOCYTE [1]: 1%
- NEUTROPHIL [1]: 11%
- NUCLEATED RED BLOOD CELLS [1]: 0 /100WBC
- PLATELET COUNT [1]: 1028.33 x10E3/uL
- ALANINE AMINOTRANSFERASE [1]: 48.33 u/L
- ALBUMIN [1]: 4.43 G/DL
- ALKALINE PHOSPHATASE [1]: 514.33 u/L
- ASPARTATE AMINOTRANSFERASE [1]: 96 u/L
- BLOOD UREA NITROGEN [1]: 15.67 mg/dL
- CARBON DIOXIDE [1]: 31.33 mmol/L
- CHLORIDE [1]: 101.5 MEQ/L
- CHOLESTEROL [1]: 68.67 mg/dL
- CREATINE PHOSPHOKINASE [1]: 316.33 u/L
- CREATININE [1]: 0.23 mg/dL
- GLUCOSE [1]: 142 mg/dL
- LACTATE DEHYDROGENASE [1]: 121.67 u/L
- LIPASE [1]: 9.67 u/L
- PHOSPHORUS [1]: 11.03 mg/dL
- POTASSIUM [1]: 5.91 MEQ/L
- SODIUM [1]: 144.65 MEQ/L
- TOTAL BILIRUBIN [1]: 0.1 mg/dL
- TOTAL PROTEIN [1]: 6.13 G/DL
- URIC ACID [1]: 0.67 mg/dL
- ABSOLUTE BASOPHIL [2]: 0 CELLS/uL
- ABSOLUTE EOSINOPHIL [2]: 0 CELLS/uL
- ABSOLUTE LYMPHOCYTE [2]: 10092.67 CELLS/uL
- ABSOLUTE MONOCYTE [2]: 194 CELLS/uL
- ABSOLUTE SEGMENTED NEUTROPHIL [2]: 1180 CELLS/uL
- BASOPHIL [2]: 0%
- EOSINOPHIL [2]: 0%
- ERYTHROCYTE COUNT [2]: 5.77 x10E6/uL
- HEMATOCRIT [2]: 37.27%
- HEMOGLOBIN [2]: 13.97 G/DL
- LEUKOCYTE COUNT [2]: 11.47 x10E3/uL
- LYMPHOCYTE [2]: 87.33%
- MEAN CORPUSCULAR HEMOGLOBIN [2]: 24.17 pg
- MEAN CORPUSCULAR HEMOGLOBIN CONCENTRATION [2]: 37.5 G/DL
- MEAN CORPUSCULAR VOLUME [2]: 64.5 fL
- MONOCYTE [2]: 1.33%
- NEUTROPHIL [2]: 11.33%
- NUCLEATED RED BLOOD CELLS [2]: 0 /100WBC
- PLATELET COUNT [2]: 1201.33 x10E3/uL
- ALANINE AMINOTRANSFERASE [2]: 48.67 u/L
- ALBUMIN [2]: 4.57 G/DL
- ALKALINE PHOSPHATASE [2]: 385 u/L
- ASPARTATE AMINOTRANSFERASE [2]: 86.33 u/L
- BLOOD UREA NITROGEN [2]: 15.67 mg/dL
- CARBON DIOXIDE [2]: 35.33 mmol/L
- CHLORIDE [2]: 99.67 MEQ/L
- CHOLESTEROL [2]: 83.67 mg/dL
- CREATINE PHOSPHOKINASE [2]: 586 u/L
- CREATININE [2]: 0.2 mg/dL
- GLUCOSE [2]: 151 mg/dL
- LACTATE DEHYDROGENASE [2]: 148.33 u/L
- LIPASE [2]: 9.33 u/L
- PHOSPHORUS [2]: 10.9 mg/dL
- POTASSIUM [2]: 6.38 MEQ/L
- SODIUM [2]: 143.9 MEQ/L
- TOTAL BILIRUBIN [2]: 0.2 mg/dL
- TOTAL PROTEIN [2]: 6.77 G/DL
- URIC ACID [2]: 0.8 mg/dL
- ABSOLUTE BASOPHIL [3]: 0 CELLS/uL
- ABSOLUTE EOSINOPHIL [3]: 0 CELLS/uL
- ABSOLUTE LYMPHOCYTE [3]: 5201.4 CELLS/uL
- ABSOLUTE MONOCYTE [3]: 116 CELLS/uL
- ABSOLUTE SEGMENTED NEUTROPHIL [3]: 1982.6 CELLS/uL
- BASOPHIL [3]: 0%
- EOSINOPHIL [3]: 0%
- ERYTHROCYTE COUNT [3]: 4.97 x10E6/uL
- HEMATOCRIT [3]: 30.78%
- HEMOGLOBIN [3]: 11.8 G/DL
- LEUKOCYTE COUNT [3]: 7.3 x10E3/uL
- LYMPHOCYTE [3]: 72.6%
- MEAN CORPUSCULAR HEMOGLOBIN [3]: 23.92 pg
- MEAN CORPUSCULAR HEMOGLOBIN CONCENTRATION [3]: 38.52 G/DL
- MEAN CORPUSCULAR VOLUME [3]: 62.06 fL
- MONOCYTE [3]: 1.8%
- NEUTROPHIL [3]: 25.6%
- NUCLEATED RED BLOOD CELLS [3]: 0 /100WBC
- PLATELET COUNT [3]: 593.4 x10E3/uL
- ALANINE AMINOTRANSFERASE [3]: 100 u/L
- ALBUMIN [3]: 3.64 G/DL
- ALKALINE PHOSPHATASE [3]: 337.8 u/L
- ASPARTATE AMINOTRANSFERASE [3]: 193.2 u/L
- BLOOD UREA NITROGEN [3]: 10.2 mg/dL
- CARBON DIOXIDE [3]: 31.2 mmol/L
- CHLORIDE [3]: 103.4 MEQ/L
- CHOLESTEROL [3]: 84.6 mg/dL
- CREATINE PHOSPHOKINASE [3]: 304.4 u/L
- CREATININE [3]: 0.19 mg/dL
- GLUCOSE [3]: 147.4 mg/dL
- LACTATE DEHYDROGENASE [3]: 116.6 u/L
- LIPASE [3]: 8.4 u/L
- PHOSPHORUS [3]: 11.14 mg/dL
- POTASSIUM [3]: 5.44 MEQ/L
- SODIUM [3]: 146.66 MEQ/L
- TOTAL BILIRUBIN [3]: 0.14 mg/dL
- TOTAL PROTEIN [3]: 5.36 G/DL
- URIC ACID [3]: 0.76 mg/dL
- ABSOLUTE BASOPHIL [4]: 0 CELLS/uL
- ABSOLUTE EOSINOPHIL [4]: 23.5 CELLS/uL
- ABSOLUTE LYMPHOCYTE [4]: 8259.25 CELLS/uL
- ABSOLUTE MONOCYTE [4]: 191.75 CELLS/uL
- ABSOLUTE SEGMENTED NEUTROPHIL [4]: 1625.5 CELLS/uL
- BASOPHIL [4]: 0%
- EOSINOPHIL [4]: 0.25%
- ERYTHROCYTE COUNT [4]: 4.46 x10E6/uL
- HEMATOCRIT [4]: 28.57%
- HEMOGLOBIN [4]: 11 G/DL
- LEUKOCYTE COUNT [4]: 10.1 x10E3/uL
- LYMPHOCYTE [4]: 81.75%
- MEAN CORPUSCULAR HEMOGLOBIN [4]: 24.82 pg
- MEAN CORPUSCULAR HEMOGLOBIN CONCENTRATION [4]: 38.55 G/DL
- MEAN CORPUSCULAR VOLUME [4]: 64.3 fL
- MONOCYTE [4]: 2%
- NEUTROPHIL [4]: 16%
- NUCLEATED RED BLOOD CELLS [4]: 0.5 /100WBC
- PLATELET COUNT [4]: 1087.25 x10E3/uL
- ALANINE AMINOTRANSFERASE [4]: 38.5 u/L
- ALBUMIN [4]: 3.65 G/DL
- ALKALINE PHOSPHATASE [4]: 255.67 u/L
- ASPARTATE AMINOTRANSFERASE [4]: 60 u/L
- BLOOD UREA NITROGEN [4]: 13.75 mg/dL
- CARBON DIOXIDE [4]: 31.5 mmol/L
- CHLORIDE [4]: 101.67 MEQ/L
- CHOLESTEROL [4]: 80.25 mg/dL
- CREATINE PHOSPHOKINASE [4]: 189 u/L
- CREATININE [4]: 0.15 mg/dL
- GLUCOSE [4]: 141.25 mg/dL
- LACTATE DEHYDROGENASE [4]: 82.25 u/L
- LIPASE [4]: 8.25 u/L
- PHOSPHORUS [4]: 10.7 mg/dL
- POTASSIUM [4]: 5.87 MEQ/L
- SODIUM [4]: 145.27 MEQ/L
- TOTAL BILIRUBIN [4]: 0.13 mg/dL
- TOTAL PROTEIN [4]: 5.8 G/DL
- URIC ACID [4]: 0.57 mg/dL
